Measured values as given in patent US11166920B2, “Microfluidics device for fabrication of large, uniform, injectable hydrogel microparticles for cell encapsulation” (Auburn University, priority 2017, dated 2021).
“Also recorded” adds a separate entry of the source.

Test system: microsphere CMs
Assay: Multielectrode array: drug response and exogenous pacing
Format: cell-based, human
Conditions: day 20 microsphere CMs; isoproterenol 1 μM, then propranolol 1 μM
Experimental: Day 20 and 50 dissociated microsphere CMs were seeded onto a fibronectin coated S2 type MEA200/30-Ti-gr (Multichannel Systems) and cultured for at least 24 h. Adhering microsphere CMs were perfused with Tyrode's solution, composed of 1.8 mM CaCl2), 5 mM glucose, 5 mM HEPES, 1 mM MgCl2, 5.4 mM KCl, 135 mM NaCl, and 0.33 mM NaH2PO4 at pH 7.4 and 37° C. Once stabilized, field potentials of spontaneous contractions were recorded at a sampling frequency of 10 kHz. Drug response of day 20 microsphere CMs was tested by adding the β-adrenergic agonist isoproterenol (1 μM) and antagonist propranolol (1 μM). Day 50 microsphere CMs were exogenously paced from 0.5-6.0 Hz.

Row | SMILES | Effect on contraction rate
1 | CC(C)NCC(O)c1ccc(O)c(O)c1 (centres unmarked) [isoproterenol] | increases the frequency of contraction; also recorded: increasing the contraction rate
2 | CC(C)NCC(O)COc1cccc2ccccc12 (centres unmarked) [propranolol] | slowed down the rate of contraction; also recorded: reversed the initial increase in contraction rate
